Values of other authors as cited in patent US9932637B2, “Genetic polymorphisms associated with cardiovascular disorders and drug response, methods of detection and uses thereof” (CELERA CORPORATION, priority 2003, dated 2018).

System: subjects with average cholesterol levels
Details: AFCAPS/TexCAPS; cited from earlier work

CC[C@H](C)C(=O)O[C@H]1C[C@@H](C)C=C2C=C[C@H](C)[C@H](CC[C@@H]3C[C@@H](O)CC(=O)O3)[C@H]21 [lovastatin]
LDL-C reduced (average): 25% | events decreased: 37%
